The subject of test [1] is Human colon tumor cells (Colo205). Description: Cell growth inhibition assay (CellTiter-Glo), Colo205. The class given is cell-based. As for the experimental part:
Human colon tumor cells (Colo205) were cultured in RPMI (Mediatech 50-020-PB) containing 10% FBS and 1% penicillin-streptomycin.
The next day, compounds were diluted as follow: For 96-well assays, 13.5 μL of compound in DMSO were diluted using nine (9) serial 1:3 dilutions of 4.5 μL in 9 μL of DMSO. Medium (270 μL/well of RPMI with 10% FBS and 1% penicillin-streptomycin) was added to the plates. Aliquots (7 μL) were added to cells in the final assay giving a final DMSO concentration of 0.2%. For 384-well assays, 15 μL of compound in DMSO were diluted using nine (9) serial 1:3 dilutions of 5 μL in 10 μL of DMSO, followed by a further dilution of 5 μL of compound with 95 μL of medium, of which 2 μL were added to cells in the final assay giving a final DMSO concentration of 0.2%. Cells were incubated at 37° C., 5% CO2 for 3 days.
Total ATP was measured (as a surrogate estimate of cell number) using CellTiter-Glo® reagent (Promega G7571). Briefly, plates were removed from the incubator and allowed to equilibrate to room temperature for 30 minutes. CellTiter-Glo® (25 μL or 55 μL for 384-well or 96-well assays, respectively) reagent was added to each well and plates were shaken on an orbital plate shaker for 2 minutes. Plates were incubated without shaking for a further 30 minutes and read on an LJL Analyst GT reader in luminometer mode with an integration time of 0.5 seconds per well. Percent inhibition of cell growth was calculated relative to DMSO vehicle-treated control wells.
Background: Cellular ATP, detected with luciferase, serves as a proxy for viable cell number.

Test [2] has as its system Human melanoma cancer cells (SK-MEL-28). Nature of the test: Cell growth inhibition assay (CellTiter-Glo), SK-MEL-28. The class given is cell-based.
For test [3], the target named is T1, BRAFV600E full-length (amino acids 2-766) (Homo sapiens, UniProt P15056, V600E).
T1 construct: His6-tagged BRAFV600E full-length (amino acids 2-766); His6; made in house; host or cells: baculovirus expression system (insect cells)
T1 sequence (P15056 2-766 V600E): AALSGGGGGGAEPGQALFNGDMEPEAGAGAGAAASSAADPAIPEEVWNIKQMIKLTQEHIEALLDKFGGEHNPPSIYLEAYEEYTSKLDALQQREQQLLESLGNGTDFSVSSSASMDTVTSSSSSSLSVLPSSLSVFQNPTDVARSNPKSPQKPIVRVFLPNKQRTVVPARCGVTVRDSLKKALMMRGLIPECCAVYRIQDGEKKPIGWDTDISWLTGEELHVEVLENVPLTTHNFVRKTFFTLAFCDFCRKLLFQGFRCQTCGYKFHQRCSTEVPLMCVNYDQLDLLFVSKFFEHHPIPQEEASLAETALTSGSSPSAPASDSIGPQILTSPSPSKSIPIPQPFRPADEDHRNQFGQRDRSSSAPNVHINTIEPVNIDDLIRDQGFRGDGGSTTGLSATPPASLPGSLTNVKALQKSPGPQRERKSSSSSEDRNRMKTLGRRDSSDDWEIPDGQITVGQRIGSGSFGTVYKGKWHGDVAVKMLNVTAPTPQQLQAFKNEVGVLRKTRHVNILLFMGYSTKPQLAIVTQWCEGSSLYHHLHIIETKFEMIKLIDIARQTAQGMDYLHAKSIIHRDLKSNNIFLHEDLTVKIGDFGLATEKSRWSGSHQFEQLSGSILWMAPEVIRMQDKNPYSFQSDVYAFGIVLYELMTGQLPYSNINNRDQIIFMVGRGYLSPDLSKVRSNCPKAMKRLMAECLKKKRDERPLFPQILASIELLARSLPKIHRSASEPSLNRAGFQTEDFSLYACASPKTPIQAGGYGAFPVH
Nature of the test: B-Raf Accelerated MEK ATPase assay (BRAMA). The test is classed as biochemical. Conditions: categorized. In a few lines: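 Coupled-enzyme readout: ADP generated by MEK-mediated ATP hydrolysis, uncoupled from ERK phosphorylation, is linked to NADH oxidation through pyruvate kinase and lactate dehydrogenase.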

Where [4] appears, read: COLO 205, 72 h, Table 2a, 3 days incubation, read-out: Activity in Colo205 Tumor Cells.
Setting [5] is: COLO 205, Table 2b, later runs, average for the one or more runs, categorized, read-out: IC50 for Colo205.
[6] abbreviates: SK-MEL-28, 72 h, Table 3a, 3 days incubation, read-out: Activity in SK-MEL-28 Tumor Cells.
The mark [7] stands for this setting: SK-MEL-28, Table 3b, later runs, average for the one or more runs, categorized, read-out: IC50 for SK-MEL-28.
Setting [8] is: B-Raf Activity, Table 1a, highest pIC50 for the one or more runs.
Setting [9] is: Table 1b, later runs, average pIC50 for the one or more runs, read-out: B-Raf pIC50 (converted).
The mark [10] stands for this setting: B-Raf pIC50, Table 1b, later runs, average pIC50 for the one or more runs.

Read-outs that look alike come from different tables or passages of the source.

On to `CC(C)CNc1nccc(-c2sc(C(C)(C)C)nc2-c2cccc(NS(=O)(=O)c3cc(F)ccc3F)c2Cl)n1` [Example 23, N-[2-Chloro-3-(2-(1,1-dimethylethyl)-5-{2-[(2-methylpropyl)amino]-4-pyrimidinyl}-1,3-thiazol-4-yl)phenyl]-2,5-difluorobenzenesulfonamide], for which the IC50 in test [1] (setting [4]) is 100 to 1000 nM; in test [1] (setting [5]) it was 100 to 1000 nM; in test [2] (setting [6]), 100 to 1000 nM; in test [2] (setting [7]), 100 to 1000 nM; in test [3] (setting [8]) it was below 100 nM; in test [3] (setting [9]), 3.16 to 31.6 nM.
Turning to `O=S(=O)(Nc1cccc(-c2nc(N3CCOCC3)sc2-c2ccncn2)c1Cl)c1c(F)cccc1F` [Example 27, N-{2-Chloro-3-[2-(4-morpholinyl)-5-(4-pyrimidinyl)-1,3-thiazol-4-yl]phenyl}-2,6-difluorobenzenesulfonamide], the IC50 in test [1] (setting [4]) is 100 to 1000 nM; in test [1] (setting [5]) it was 100 to 1000 nM; in test [2] (setting [6]), 100 to 1000 nM; in test [2] (setting [7]) it was 100 to 1000 nM; in test [3] (setting [8]), below 100 nM; in test [3] (setting [9]), 3.16 to 31.6 nM.
As for `Cc1nccc(-c2sc(N3CCOCC3)nc2-c2cccc(NS(=O)(=O)c3cc(F)ccc3F)c2Cl)n1` [Example 28, N-{2-Chloro-3-[5-(2-methyl-4-pyrimidinyl)-2-(4-morpholinyl)-1,3-thiazol-4-yl]phenyl}-2,5-difluorobenzenesulfonamide], the IC50 was below 100 nM in test [1] (setting [4]); below 100 nM in test [1] (setting [5]); below 100 nM in test [2] (setting [6]); below 100 nM in test [2] (setting [7]); below 100 nM in test [3] (setting [8]); 3.16 to 31.6 nM in test [3] (setting [9]).
In the case of `CC(C)c1nc(-c2ccc(F)c(NS(=O)(=O)c3ccc(F)cc3F)c2)c(-c2ccnc(NCCS(C)(=O)=O)n2)s1` [Example 29, 2,4-Difluoro-N-{2-fluoro-5-[2-(1-methylethyl)-5-(2-{[2-(methylsulfonyl)ethyl]amino}-4-pyrimidinyl)-1,3-thiazol-4-yl]phenyl}benzenesulfonamide], the IC50 in test [1] (setting [4]) was 100 to 1000 nM; in test [1] (setting [5]) it was 100 to 1000 nM; in test [2] (setting [6]), 100 to 1000 nM; in test [2] (setting [7]) it was 100 to 1000 nM; in test [3] (setting [8]) it was below 100 nM; in test [3] (setting [9]) it was 3.16 to 31.6 nM.
In the case of `CC(C)c1nc(-c2cccc(NS(=O)(=O)c3ccco3)c2)c(-c2ccnc(NCCS(C)(=O)=O)n2)s1` [Example 30, N-{3-[2-(1-Methylethyl)-5-(2-{[2-(methylsulfonyl)ethyl]amino}-4-pyrimidinyl)-1,3-thiazol-4-yl]phenyl}-2-furansulfonamide], the IC50 in test [1] (setting [4]) is below 100 nM; in test [1] (setting [5]) it was below 100 nM; in test [2] (setting [6]) it was below 100 nM; in test [2] (setting [7]), below 100 nM; in test [3] (setting [8]), below 100 nM; in test [3] (setting [10]), at most 3.16 nM.
For `CC(C)c1nc(-c2cccc(NS(=O)(=O)c3cccs3)c2)c(-c2ccnc(NCCS(C)(=O)=O)n2)s1` [Example 31, N-{3-[2-(1-Methylethyl)-5-(2-{[2-(methylsulfonyl)ethyl]amino}-4-pyrimidinyl)-1,3-thiazol-4-yl]phenyl}-2-thiophenesulfonamide], the IC50 in test [1] (setting [4]) was below 100 nM; in test [1] (setting [5]) it was below 100 nM; in test [2] (setting [6]), below 100 nM; in test [2] (setting [7]), below 100 nM; in test [3] (setting [8]) it was below 100 nM; in test [3] (setting [10]), at most 3.16 nM.
Take `CS(=O)(=O)CCNc1nccc(-c2sc(N3CCCC3)nc2-c2cccc(NS(=O)(=O)c3c(F)cccc3F)c2)n1` [Example 32, 2,6-Difluoro-N-{3-[5-(2-{[2-(methylsulfonyl)ethyl]amino}-4-pyrimidinyl)-2-(1-pyrrolidinyl)-1,3-thiazol-4-yl]phenyl}benzenesulfonamide]: the IC50 in test [1] (setting [4]) is below 100 nM; in test [1] (setting [5]), below 100 nM; in test [2] (setting [6]), below 100 nM; in test [2] (setting [7]) it was below 100 nM; in test [3] (setting [8]) it was below 100 nM; in test [3] (setting [10]), at most 3.16 nM.

These data come from US7994185B2, “Benzene sulfonamide thiazole and oxazole compounds” (Glaxo Smith Kline LLC, priority 2008, dated 2011).
